Assay results: patent publication US20260158056A1, “USE OF LOW MOLECULAR WEIGHT HYALURONIC ACID FOR THE TREATMENT OF LUNG MUCOSAL INFLAMMATION” (INSTITUT NATIONAL DE LA SANTÉ ET DE LA RECHERCHE MÉDICALE, priority 2021, published 2026)

Experiments:
Assay type in all cases: cell-based
[1] = tested on: IL-8 secreted by F508del/F508del CF human airway epithelial cells; experiment: IL-8 ELISA, CF airway epithelial cell monolayers, Cytomix 24 h then Cytomix + treatment 24 h (curative); conditions: FIG. 2, 5; curative: Cytomix 24 h, then Cytomix + HA 1 mg/mL or Dexa 10^-6M 24 h; n=7 CF patients
Procedure: FIG. 2: Measurement by ELISA assay of the pro-inflammatory chemokine IL-8 secreted by F508del/F508del CF human airway epithelial cells cultured as monolayers. Airway epithelial cells were seeded in 48-wells plates and cultured until confluence was reached. Cells were then treated for 24 h with a pro-inflammatory chemokine cocktail (TNFα, IL1β and IFNγ; 10 ng/mL each) called Cytomix (Cy). Cells were thereafter treated with a combo containing Cytomix and the anti-inflammatory dexamethasone (Dexa; 10^-6M), or 15-45 kDa sodium-hyaluronic acid (HA-Na 15-45 kDa) (ARD—Pomacle—France—as prepared according to WO2004050187), 15-30 kDa sodium-hyaluronic acid (HA-Na 15-30 kDa) (Sigma Aldrich), or 30-50 kDa sodium-hyaluronic acid (HA-Na 30-50 kDa) (Sigma Aldrich) at 1 mg/mL during the following 24 h. The culture medium was finally collected and the IL-8 content was determined by ELISA assay. n=7 different F508del/F508del CF patients. p<0.001 (***); p<0.01 (**); p<0.05 (*).ns: non-significant.
FIG. 5: Measurement by ELISA assay of the pro-inflammatory chemokine IL-8 secreted by F508del/F508del CF human airway epithelial cells cultured as monolayers. Airway epithelial cells were seeded in 48-wells plates and cultured until confluence was reached. Cells were then treated for 24 h with a pro-inflammatory chemokine cocktail (TNFα, IL1β and IFNγ; 10 ng/ml each) called Cytomix (Cy). Cells were thereafter treated with a combo containing Cytomix and the anti-inflammatory dexamethasone (Dexa; 10^-6M), or 15-45 kDa sodium-hyaluronic acid (HA-Na 15-45 kDa) (ARD—Pomacle—France—as prepared according to WO2004050187), 15-45 kDa calcium-hyaluronic acid (HA-Ca 15-45 kDa; ARD), or 15-45 kDa potassium-hyaluronic acid (HA-K 15-45 kDa; ARD) at 1 mg/mL during the following 24 h. The culture medium was finally collected and the IL-8 content was determined. n=7 different F508del/F508del CF patients. p<0.001 (***); p<0.01 (**); p<0.05 (*). ns: non-significant.

[2] = tested on: IL-8 secreted by F508del/F508del CF human airway epithelial cells; experiment: IL-8 ELISA, CF airway epithelial cell monolayers, Cytomix + treatment 24 h (co-treatment); conditions: FIG. 3, 6; co-treatment: Cytomix + HA 1 mg/mL or Dexa 10^-6M 24 h; n=7 CF patients
Procedure: (§1) FIG. 3: Measurement by ELISA assay of the pro-inflammatory chemokine IL-8 secreted by F508del/F508del CF human airway epithelial cells cultured as monolayers. Airway epithelial cells were seeded in 48-wells plates and cultured until confluence was reached. Cells were then treated for 24 h with a combo containing a pro-inflammatory chemokine cocktail (TNFα, IL1β and IFNγ; 10 ng/mL each) called Cytomix (Cy) and the anti-inflammatory dexamethasone (Dexa; 10^-6M), 15-45 kDa sodium-hyaluronic acid (HA-Na 15-45 kDa) (ARD—Pomacle—France—as prepared according to WO2004050187), 15-30 kDa sodium-hyaluronic acid (HA-Na 15-30 kDa) (Sigma Aldrich), or 30-50 kDa sodium-hyaluronic acid (HA-Na 30-50 kDa) (Sigma Aldrich) at 1 mg/mL. The culture medium was then collected and the IL-8 content was determined. n=7 F508del/F508del CF patient. p<0.001 (***); p<0.01 (**); p<0.05 (*). ns: non-significant.
FIG. 6: Measurement by ELISA assay of the pro-inflammatory chemokine IL-8 secreted by F508del/F508del CF human airway epithelial cells cultured as monolayers. Airway epithelial cells were seeded in 48-wells plates and cultured until confluence was reached. Cells were then treated for 24 h with a combo containing a pro-inflammatory chemokine cocktail (TNFα, IL1β and IFNγ 10 ng/mL each) called Cytomix (Cy) and the anti-inflammatory dexamethasone (Dexa; 10^-6M), or 15-45 kDa sodium-hyaluronic acid (HA-Na 15-45 kDa) (ARD—Pomacle—France—as prepared according to WO2004050187), 15-45 kDa calcium-hyaluronic acid (HA-Ca 15-45 kDa; ARD), or 15-45 kDa potassium-hyaluronic acid (HA-K 15-45 kDa; ARD) at 1 mg/mL. The culture medium was then collected and the IL-8 content was determined. n=7 different F508del/F508del CF patients. p<0.001 (***); p<0.01 (**); p<0.05 (*). ns: non-significant.

[3] = tested on: IL-8 secreted by human COPD airway epithelial cells; experiment: IL-8 ELISA, COPD airway epithelial cell monolayers, Cytomix + treatment 24 h (co-treatment); conditions: FIG. 18, 20; co-treatment: Cytomix + HA 1 mg/mL or Dexa 10^-6M 24 h; n=5 COPD patients
Procedure: as §1, with “18:” for “3:”, “by” for “by F508del/F508del CF”, “human COPD” for “human”, “IFNγ” for “IFNγ;”, “n=5 COPD” for “n=7 F508del/F508del CF”
FIG. 20: Measurement by ELISA assay of the pro-inflammatory chemokine IL-8 secreted by human COPD airway epithelial cells cultured as monolayers. Airway epithelial cells were seeded in 48-wells plates and cultured until confluence was reached. Cells were then treated for 24 h with a combo containing a pro-inflammatory chemokine cocktail (TNFα, IL1β and IFNγ 10 ng/ml each) called Cytomix (Cy) and the anti-inflammatory dexamethasone (Dexa; 10^-6M), 15-45 kDa sodium-hyaluronic acid (HA-Na 15-45 kDa) (ARD—Pomacle—France—as prepared according to WO2004050187), 15-45 kDa calcium-hyaluronic acid (HA-Ca 15-45 kDa; ARD), or 15-45 kDa potassium hyaluronic acid (HA-K 15-45 kDa; ARD) at 1 mg/mL. The culture medium was then collected and the IL-8 content was determined. n=5 different COPD patients. p<0.001 (***); p<0.01 (**); p<0.05 (*). ns: non-significant.

| Compound | decrease in IL-8 secretion [1] [%] | decrease in IL-8 secretion [2] [%] | decrease in IL-8 secretion [3] [%] |
| --- | --- | --- | --- |
| 15-30 kDa sodium-hyaluronic acid [HA-Na 15-30 kDa] | 44.2 | 40.2 | 43.1 |
| 30-50 kDa sodium-hyaluronic acid [HA-Na 30-50 kDa] | 42.2 | 30.1 | 30.8 |
| 15-45 kDa potassium-hyaluronic acid [HA-K 15-45 kDa] | 47.5 | 30 | 27.5 |
| C[C@@H]1C[C@H]2[C@@H]3CCC4=CC(=O)C=C[C@]4(C)[C@@]3(F)[C@@H](O)C[C@]2(C)[C@@]1(O)C(=O)CO [Dexamethasone, dexamethasone, reference compound] | 30.9 | 21.4 | 32.1 |
| 15-45 kDa calcium-hyaluronic acid [HA-Ca 15-45 kDa] | 33.6 | 11.6 | 12.9 |
| 15-45 kDa sodium-hyaluronic acid [HA-Na 15-45 kDa] | 32.1 | 33.9 | 33.4 |
